# According to patent US4610987A, “Imidazoquinazolin-2-one compounds” (Daiichi Seiyaku Co., Ltd., priority 1983, dated 1986):
# Structures can show the parent of a compound that is named as a salt. Where two headings read alike, the source gives them in different places.
# Experiments:
# platelet aggregation [1] = assay: Test of Platelet Aggregation Inhibition (ex vivo, p.o.); format: in vivo, Wistar Imamichi rat; settings: for inhibition at 10 mg/kg: Platelet, po, ex vivo, rat, 10 mg/Kg p.o., 1 hour, *P<0.05, **P<0.01, ***P<0.001
# Procedure: One hour later, citrated blood was taken from the heart, and platelet aggregation was determined in the same manner as described in the in vitro test. The inhibitory activity was compared with that of control and expressed in terms of percent inhibition.
# circulatory system = assay: Test of Influence on Circulatory System (blood pressure, heart beats); format: in vivo, SLC-Wistar rat; settings: rat, 50 mg/Kg p.o.
# Procedure: 5 or 6 male normal SLC-Wistar rats per group (body weight: 205-255 g) orally received 50 mg/Kg of the test compound, and the blood pressure (tail cuff method) and the heart beats were measured with the passage of time in order to elucidate influences of the test compound on the circulatory system.
# [2] = tested on: platelet aggregation (human platelet-rich-plasma); assay: Test of Platelet Aggregation Inhibition (in vitro), human PRP; format: cell-based; settings: human blood, ADP-induced
# Procedure: (§1) The test was performed as follows in accordance with the method of Ashida et al, Thrombosis and Haemostasis, Vol. 40, 542 (1979).
# (§2) Blood was taken by puncture from the heart of a Wistar Imamichi rat under anesthesia with pentobarbital into a syringe containing 1/10 volume of a 3.13% aqueous solution of sodium citrate dihydrate, and the citrated blood was centrifuged to obtain a platelet-rich-plasma (PRP). In the same manner, citrated blood was collected from the vein of a healthy human who had not taken aspirin or any other anti-inflammatory agent since before 10 days, followed by centrifugation to obtain PRP. 5 μl of each test compound was added to 0.445 ml of each of these PRP samples, and the system was warmed at 30° C. for 1 minute. 50 μl of an aggregation inducer (ADP or collagen) was then added thereto, and platelet aggregation was determined according to the method of Born, Nature, Vol. 194, 927 (1962).
# [3] = tested on: platelet aggregation (rat platelet-rich-plasma); assay: Test of Platelet Aggregation Inhibition (in vitro), rat PRP; format: cell-based, Wistar Imamichi rat; settings: for IC50: Platelet, in vitro, rat blood
# Procedure: as §1, §2
# [4] = Solubility Test (water-solubility)
# human platelet PDE II = assay: Inhibitory activity on phosphodiesterase, platelet PDE II (cGMP); format: biochemical; settings: cGMP substrate
# Procedure: (§3) Phosphodiesterase fractions were separated from 105,000×g of supernatant fractions from human platelets and heart by DEAE-cellulose column chromatography using the method of Timothy et al. (Arch. Biochem. Biophy. 196, 465-474, 1979) with minor modifications. These fractions were designated PDE I, PDE II and PDE III, depending upon the order of their emergence from the DEAE-cellulose column.
# (§4) Phosphodiesterase activity was measured by the method of Thompson and Appleman (Biochemistry 10, 311-316, 1971) with slight modifications. The reaction mixture consisted of 25 mM of Tris-HCl (pH 7.4), 5 mM of MgCl2, 1 μM of [^3 H]-cAMP or cGMP (approximate 20,000 cpm), various concentrations of a test compound and the enzyme preparation. After incubation for 10 minutes at 30° C., the reaction was terminated by boiling the reaction mixture for 45 seconds. 5'-[^3 H]-AMP or GMP formed by phosphodiesterase was converted to [^3 H]adenosine or [^3 H]quanosine by snake venom (Botherop Atrox) containing 5'-nucleotidase and the product isolated by a cation exchange resin was counted in a liquid scintillation counter.
# human platelet PDE I = human platelet PDE I (Homo sapiens, UniProt O76074); assay: Inhibitory activity on phosphodiesterase, platelet PDE I (cGMP); format: biochemical; settings: cGMP substrate
# Procedure: as §3, §4
# human platelet PDE III = human platelet PDE III (Homo sapiens, UniProt Q14432); assay: biochemical; settings: for IC50: cAMP substrate
# Procedure: as §3, §4
# platelet aggregation [5] = assay: Test of Platelet Aggregation Inhibition (ex vivo; i.v.); format: in vivo, Wistar Imamichi rat; settings: iv, 10 min, rat, i.v. 1.0 mg/Kg/min, 10 min
# Procedure: As test animals, 5 to 6 Wistar Imamichi rats (body weight: about 260 g) that had been allowed food and water ad libitum were used per group. The test compound was dissolved in a physiological saline solution and continuously injected over a period of 10 or 15 minutes to the rats under anesthesia with pentobarbital through the femoral vein. Immediately after completion of the administration, citrated blood was collected from the heart, and platelet aggregation was determined in the same manner as in the test in vitro in Test Example 2.
# human heart PDE III = assay: Inhibitory activity on phosphodiesterase, heart PDE III (cAMP); format: biochemical; settings: for activity on heart PDE (in words): Table 6; for IC50: cAMP substrate
# Procedure: as §3, §4
# human heart PDE I = assay: Inhibitory activity on phosphodiesterase, heart PDE I (cGMP); format: biochemical; settings: cGMP substrate
# Procedure: as §3, §4
# [6] = tested on: platelet aggregation induced by B16 melanoma cells; assay: Inhibition on Platelet Aggregation Induced by Cancer Cells (in vitro), B16; format: cell-based, C57BL/6 mouse; set-up: key: +: Aggregation was observed.; ±: Aggregation was partially inhibited.; -: No aggregation was observed
# Procedure: (§5) It is known nowadays that platelet aggregation plays an important role in metastasis of cancers. […] Tanaka et al. The effect of the compounds of this invention to inhibit the above-described cancer cell-induced platelet aggregation was tested as follows. Cell suspensions of B16 or 3LL were prepared according to the method of Tanaka et al, Invarsion and Metastasis, Vol. 2, 289 (1982). […] Platelet aggregation of the sample system was determined according to the method of Born, and the platelet aggregation inhibitory activity was expressed by the following scale: […]
# [7] = tested on: platelet aggregation induced by Lewis lung cancer (3LL) cells; assay: Inhibition on Platelet Aggregation Induced by Cancer Cells (in vitro), 3LL; format: cell-based, C57BL/6 mouse; set-up: key: +: Aggregation was observed.; ±: Aggregation was partially inhibited.; -: No aggregation was observed
# Procedure: as §5
# [8] = ADP, read-out: ex vivo % inhibition of platelet aggregation, ADP
# [9] = collagen, read-out: ex vivo % inhibition of platelet aggregation, Collagen
# [10] = ADP-induced, read-out: IC50, platelet aggregation inhibition in vitro, ADP
# [11] = collagen-induced, read-out: IC50, platelet aggregation inhibition in vitro, Collagen
# [12] = ADP, *P<0.05, **P<0.01, read-out: Percent Inhibition of platelet aggregation, ADP
# [13] = collagen, *P<0.05, **P<0.01, read-out: Percent Inhibition of platelet aggregation, Collagen
# Sequence of human platelet PDE III (Q14432 whole entry): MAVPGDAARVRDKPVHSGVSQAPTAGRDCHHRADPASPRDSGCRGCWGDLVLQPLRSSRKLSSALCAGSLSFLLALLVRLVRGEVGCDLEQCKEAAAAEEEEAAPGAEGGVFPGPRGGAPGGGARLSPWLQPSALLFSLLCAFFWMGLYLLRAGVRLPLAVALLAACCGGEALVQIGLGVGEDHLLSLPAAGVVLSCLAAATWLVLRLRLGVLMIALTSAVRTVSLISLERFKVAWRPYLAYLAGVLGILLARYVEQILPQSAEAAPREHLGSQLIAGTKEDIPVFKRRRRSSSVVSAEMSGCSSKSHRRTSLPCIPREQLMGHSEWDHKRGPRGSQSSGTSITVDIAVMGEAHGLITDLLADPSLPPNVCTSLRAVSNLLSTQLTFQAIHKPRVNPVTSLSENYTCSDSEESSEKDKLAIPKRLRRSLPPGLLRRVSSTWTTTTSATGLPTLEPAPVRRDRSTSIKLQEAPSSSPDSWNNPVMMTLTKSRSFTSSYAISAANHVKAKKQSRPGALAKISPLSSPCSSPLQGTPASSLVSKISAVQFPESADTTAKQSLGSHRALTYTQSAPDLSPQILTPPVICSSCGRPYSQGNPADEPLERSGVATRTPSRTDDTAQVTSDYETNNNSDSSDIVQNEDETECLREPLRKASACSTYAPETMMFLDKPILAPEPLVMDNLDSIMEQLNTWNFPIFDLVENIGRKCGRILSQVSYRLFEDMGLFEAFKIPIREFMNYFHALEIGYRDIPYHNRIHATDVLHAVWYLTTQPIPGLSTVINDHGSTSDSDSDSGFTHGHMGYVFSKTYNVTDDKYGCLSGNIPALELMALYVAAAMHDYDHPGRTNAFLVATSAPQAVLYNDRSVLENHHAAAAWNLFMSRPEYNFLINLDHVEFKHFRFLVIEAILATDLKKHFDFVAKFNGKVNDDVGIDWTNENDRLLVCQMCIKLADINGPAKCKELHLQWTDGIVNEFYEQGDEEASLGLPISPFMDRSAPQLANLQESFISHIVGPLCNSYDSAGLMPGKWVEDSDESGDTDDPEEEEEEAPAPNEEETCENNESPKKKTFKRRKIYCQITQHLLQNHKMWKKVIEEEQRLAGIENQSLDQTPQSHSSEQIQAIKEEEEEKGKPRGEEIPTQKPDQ
SMILES,inhibition at 10 mg/kg (platelet aggregation [1]; [8]) [%],inhibition at 10 mg/kg (platelet aggregation [1]; [9]) [%],"IC50 [3, 10] [µM]","IC50 [3, 11] [µM]",IC50 (human platelet PDE II) [µM],IC50 (human platelet PDE I) [µM],IC50 Ratio (PDE II) Heart/Platelet (human platelet PDE III),IC50 (human platelet PDE III) [µM],IC50 (human heart PDE III) [µM],IC50 (human heart PDE I) [µM],also measured
"Cc1cccc2c1CN1CC(=O)NC1=N2.Cl [BL-3459, 6-methyl-1,2,3,5-tetrahydroimidazo[2,1-b]quinazolin-2-one hydrochloride]",31,54,5,0.76,,,,,,,"aggregation inhibitory activity in ADP- or collagen-induced aggregation (in words) (platelet aggregation [1]; orally administered, Table 2): widely varied depending on the individual animal and, therefore, cannot be regarded significant; Increase in Heart Beat (circulatory system; 1 hr, **P<0.01): 18%; Reduction in Blood Pressure (circulatory system; 1 hr, *P<0.05, **P<0.01): 23%; Increase in Heart Beat (circulatory system; 2 hr, **P<0.01): 20%; Reduction in Blood Pressure (circulatory system; 2 hr, *P<0.05, **P<0.01): 28%; Increase in Heart Beat (circulatory system; 3 hr, **P<0.01): 17%; Reduction in Blood Pressure (circulatory system; 3 hr, **P<0.01): 26%; Increase in Heart Beat (circulatory system; 5 hr, **P<0.01): 18%; Reduction in Blood Pressure (circulatory system; 5 hr, **P<0.01): 34%; Increase in Heart Beat (circulatory system; 6 hr, *P<0.05, **P<0.01): 19%; Reduction in Blood Pressure (circulatory system; 6 hr, *P<0.05, **P<0.01): 35%; Reduction in Blood Pressure (circulatory system; 24 hr, *P<0.05): 12%; IC50 [2]: 1.7 µM; solubility ([4]; tap water, pH 2): < 100 µg/mL; solubility ([4]; water, pH 4, water): < 10 µg/mL"
CN(C)c1ccc2c(c1Cl)CN1CC(=O)NC1=N2 [Example 22],64,86,7,1.2,2.9,1.6,1.2,0.15,0.18,> 100,inhibition at 1 mg/kg (platelet aggregation [5]; [12]): 23.5%; inhibition at 1 mg/kg (platelet aggregation [5]; [13]): 100%; activity on heart PDE (in words) (human heart PDE III): strong activity on heart PDE; platelet aggregation inhibitory activity (in words) [3]: strong platelet aggregation inhibitory activity; water-solubility (in words) [4]: water-soluble
O=C1CN2Cc3ccc(N4CCOCC4)cc3N=C2N1 [Example 8],,,,,,,,,,,inhibition at 1 mg/kg (platelet aggregation [5]; [12]): 16.5%; inhibition at 1 mg/kg (platelet aggregation [5]; [13]): 48.5%
Cc1cc2c(cc1N1CCCCC1)CN1CC(=O)NC1=N2 [Example 18],,,5.4,0.58,,,,,,,
O=C1CN2Cc3cc(N4CCOCC4)c(Cl)cc3N=C2N1 [Example 17],47,68,0.36,0.1,,,,,,,
"Cl.Cl.Nc1ccc2c(c1)CN1CC(=O)NC1=N2 [BL-7-NH2, 7-amino-1,2,3,5-tetrahydroimidazo[2,1-b]quinazolin-2-one dihydrochloride, reference compound]",,,170,16,,,,,,,IC50 [2]: 50 µM; platelet aggregation inhibitory activity (in words) [3]: scarecely exhibited platelet aggregation inhibitory activity
"Nc1cc(-c2ccncc2)c[nH]c1=O [Amrinone, 5Amino-(3,4bipyridin)-6(1H)--one, reference compound]",,,,,,> 100,,,34,> 100,
CCN(CC)c1ccc2c(c1Cl)CN1CC(=O)NC1=N2 [Example 23],25,70,5.6,1.3,,,,,,,
CN(C)c1cc2c(cc1Cl)NC1=NC(=O)CN1C2 [Example 15],28,49,1.1,0.44,5.1,3.9,1.7,0.063,0.11,> 100,Inhibition on platelet aggregation induced by B16 ([6]; sample concn. 0.1 μM): +; Inhibition on platelet aggregation induced by B16 ([6]; sample concn. 0.3 μM): -; Inhibition on platelet aggregation induced by B16 ([6]; sample concn. 1 μM): -; Inhibition on platelet aggregation induced by B16 ([6]; sample concn. 3 μM): -; Inhibition on platelet aggregation induced by 3LL ([7]; sample concn. 0.3 μM): ±; Inhibition on platelet aggregation induced by 3LL ([7]; sample concn. 1 μM): -; Inhibition on platelet aggregation induced by 3LL ([7]; sample concn. 3 μM): -; activity on heart PDE (in words) (human heart PDE III): strong activity on heart PDE; platelet aggregation inhibitory activity (in words) [3]: strong platelet aggregation inhibitory activity; water-solubility (in words) [4]: water-soluble
O=C1CN2Cc3c(ccc(N4CCCCC4)c3Cl)N=C2N1 [Example 9],25,32,7.9,1.2,,,,,,,
O=C1CN2Cc3cc(N4CCOCC4)ccc3N=C2N1 [Example 28],,,5,2,,,,,,,
"O=C1CN2Cc3cc(N4CCCC4)ccc3N=C2N1 [Example 26, 7-pyrrolidino-1,2,3,5-tetrahydroimidazo[2,1-b]quinazolin-2-one dihydrochloride]",,,2.6,1.9,,,,,,,
"Cl.O=C1CN2Cc3c(sc4c3CCCC4)N=C2N1 [DH-6471, reference compound]",,,,,> 100,> 100,7.1,0.065,0.46,> 10,
"O=C1CN2Cc3cc(N4CCCCC4)ccc3N=C2N1 [7-Piperidino Compound, reference compound]",,,,,54,93,5.3,0.15,0.8,> 100,
CC1CCCCN1c1ccc2c(c1)CN1CC(=O)NC1=N2 (stereo not shown) [Example 5],,,2,1.7,57,45,2.3,0.35,0.8,> 50,activity on heart PDE (in words) (human heart PDE III): strong activity on heart PDE; platelet aggregation inhibitory activity (in words) [3]: strong platelet aggregation inhibitory activity; water-solubility (in words) [4]: water-soluble
CN(C)c1cccc2c1CN1CC(=O)NC1=N2 [Example 2],,,2.7,1.5,,,,,,,
